Entries after “also recorded” stand apart in the source; their conditions may differ. Where two headings read alike, the source gives them in different places.
Assays:
[1] = system: DNA of MCF-7, MDA 468, KM12 and HCC 2998 cells; test: DNA adduct formation; format: cell-based, human; settings: MCF-7, MDA 468, KM 12 and HCC 2998 cells; 10 μM, 24 hours
KM 12 = test: MTT assay, 3 day exposure, KM12; format: cell-based, human; settings: KM 12 (colon), read-out: GI50 values in cell lines, KM 12
Procedure: (§1) A range of compounds were evaluated in MTT assays following 3 day exposure against a panel of two human breast cancer cell lines MCF-7 (ER+) and MDA 468 (ER−), and two colon cancer cell lines KM12 and HCC 2998. In general the breast cell lines were more sensitive to the agents and the MDA 468 line the most sensitive of the four (Table 2). The benchmark active compound was 5-fluoro-2-(3,4-dimethoxyphenyl)benzothiazole (1) with GI50 values<0.1 nM against the two breast cell lines. […] The most interesting series of compounds were those combining a 5-fluoro group with two oxygenated substituents in the 3′,4′-positions where minor, seemingly conservative, structural changes were associated with a dramatic variations in activity (when compared to 1). […] In summary, this in vitro screen led to the identification of the fluorinated 2-(3,4-dimethoxyphenyl)benzothiazole structure as a novel antitumor pharmacophore with the 5-fluoro analogue (1) astride a pinnacle of activity.
(§2) The assays/methods used to generate the results referred to herein are well known to those skilled in the art and therefore it has not been necessary to describe them in detail.

[2] = system: NCI in vitro 60 human cancer cell panel; test: NCI in vitro 60 human cancer cell panel, sulforhodamine B assay; format: cell-based
Procedure: Results from the more extensive NCI in vitro 60 human cancer cell panel^15 corroborated the results (above). The mean GI50 values across the range of compounds (above), including the two series of esters (11-21) are an unremarkable 10-100 μM (data not shown); however, these values disguise significant cell selectivity. […] Full NCI mean GI50 graphs for compounds (1,2,3,4,101,102) are included herein as FIGS. 1 and 8 to 12.
The results shown on FIG. 1 were generated by treating the cells with an active agent for 48 hours, in this case compound 1, before determination of viability by sulforhodamine B assay.

MCF-7 = test: MTT assay, 3 day exposure, MCF-7; format: cell-based; settings: Homo sapiens, read-out: GI50 values in cell lines, MCF-7
Procedure: as §1, §2

[3] = system: MCF-7, MDA 468, KM12 and HCC 2998; test: MTT assay, panel of four cell lines, results in words; format: cell-based, human; settings: compared to compound 1
Procedure: as §1

MDA 468 = test: MTT assay, 3 day exposure, MDA 468; format: cell-based; settings: Homo sapiens, MDA 468 (breast), read-out: GI50 values in cell lines, MDA 468
Procedure: as §1, §2

cyp lal [4] = test: Induction of cyp lal gene transcription; format: cell-based
Procedure: These cell lines are known to be sensitive to compound 1 and 2-(4-amino-3-methylphenyl)-5-fluorobenzothiazole (102, 5F 203; NSC 703786; WO 95/06469) In cell lines which are sensitive to compound 1 only, cyp lal gene transcription was not induced.
The results shown in FIG. 2 were generated by treating the cells with 1 μM of an active agent for 24 hours before determination of changes in cyp lal gene expression.

cyp lal [5] = test: Induction of cyp lal protein expression by Western Blot; format: cell-based
Excerpt: These findings have been verified following examination of induction of cyp lal protein expression by Western Blot. The following cell lines were used to represent sensitive models: MCF-7, MDA 468 (breast carcinoma), KM12 and HCC 2998 (colon carcinoma) lines.

cyp lal [6] = molecular target: T1, cyp lal (Homo sapiens, UniProt P04798); test: Inhibition of cyp lal (EROD) activity, de-ethylation of ethoxyresorufin by cyp lal microsomes; format: biochemical
T1 construct: host or cells: microsomes
T1 sequence (P04798 1-512): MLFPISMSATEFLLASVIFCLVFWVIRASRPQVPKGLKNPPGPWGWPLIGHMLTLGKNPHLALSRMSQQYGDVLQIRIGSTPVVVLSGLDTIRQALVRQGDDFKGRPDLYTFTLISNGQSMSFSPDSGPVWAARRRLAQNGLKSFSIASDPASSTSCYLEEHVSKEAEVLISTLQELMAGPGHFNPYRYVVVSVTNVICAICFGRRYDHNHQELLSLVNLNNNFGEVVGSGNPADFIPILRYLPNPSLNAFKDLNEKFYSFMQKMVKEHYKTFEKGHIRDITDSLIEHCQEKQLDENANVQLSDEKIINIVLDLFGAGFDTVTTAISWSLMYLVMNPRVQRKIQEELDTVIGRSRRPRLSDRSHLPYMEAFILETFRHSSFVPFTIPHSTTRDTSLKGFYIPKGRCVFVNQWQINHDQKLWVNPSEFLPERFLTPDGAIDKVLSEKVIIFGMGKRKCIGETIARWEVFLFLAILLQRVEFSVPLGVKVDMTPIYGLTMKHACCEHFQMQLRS
Procedure: Compound 1 inhibits cyp lal (EROD) activity in a dose dependent manner (IC50=8 μM; FIG. 4).
The results shown in FIG. 4 were generated by measuring the de-ethylation of ethoxyresorufin by cyp lal microsomes in the absence and the presence of increasing concentrations of compound 1. DF 203 was used as a positive control.

cyp lbl = test: Induction of cyp lbl gene transcription; format: cell-based
HCC 2998 = test: MTT assay, 3 day exposure, HCC 2998; format: cell-based; settings: Homo sapiens, HCC 2998, 72 h, HCC 2998 (colon), MTT, 3 day exposure, triplicate; read-out: GI50 values in cell lines, HCC 2998
Procedure: as §1, §2

[7] = Homo sapiens, KM12, 72 h, MTT, 3 day exposure, triplicate
[8] = MCF7, 72 h, MCF-7 (breast), MTT, 3 day exposure, triplicate
[9] = MCF7, MCF-7 (breast), value in nM
[10] = 72 h, MTT, 3 day exposure, triplicate

Row | melting point | GI50 (MCF-7; [8]) | GI50 (MCF-7; [9]) | induction of cyp lal gene transcription (cyp lal [4]; cell lines which are sensitive to compound 1 only) | induction of cyp lal protein (cyp lal [5]; colon cell lines KM12 and HCC 2998) | IC50 (cyp lal [6]) | induction of cyp lbl gene transcription (cyp lbl) | induction of cyp lbl transcription (cyp lbl; certain compound 1-sensitive colon and lung carcinoma cells) | GI50 (HCC 2998) | SMILES | DNA adducts formed [1] | GI50 (KM 12; [7]) | GI50 (KM 12; value in nM) | sensitivity of cancer cell panels / antitumour activity in vitro ([2]; NCI mean GI50 graphs, FIGS. 1 and 8 to 12) | growth inhibitory potency in words [3] | GI50 (MDA 468; [10]) | GI50 (MDA 468; value in nM) | induction of cyp lal gene transcription (cyp lal [4]; MCF-7, T-47D, TK-10, NC1 and 1460 cells, 1 μM, 24 hours) | induction of cyp lal protein (cyp lal [5]; lysates of MCF-7 and MDA 468 breast cells) | GI50 ([2]; Homo sapiens, colon and NSCL sub-panels, 48 hours, read-out: GI50 values against some cell lines)
1 | 129 °C | 5 nM | 2.9 nM |  |  |  |  |  |  | COc1ccc(-c2nc3c(F)cccc3s2)cc1OC [Compound 2, 4-Fluoro-2-(3,4-dimethoxyphenyl)benzothiazole] | One major adduct species | 850 nM | 78.4 nM | reduced activity against cancer cells when compared to compound 1; also recorded: substantial potent and selective antitumour activity; also recorded: potent (but attenuated compared to 1), activity in the colon and NSCL sub-panels | retained nanomolar growth inhibitory potency against one or more of the cell lines | 5 nM | 3.4 nM |  |  | 
2 |  | < 0.1 nM | < 0.1 nM | not induced | not induced | 8000 nM | can be induced | no induction of cyp-lbl transcription | 0.25 nM | COc1ccc(-c2nc3cc(F)ccc3s2)cc1OC [Compound 1, 2-(3,4-dimethoxyphenyl)-5-fluorobenzothiazole] |  | 290 nM |  |  |  | < 0.1 nM | < 0.1 nM | able to induce cyp lal gene transcription | Induction of cyp lal protein was observed | < 10 nM

From patent publication US7384966B2, “2-arylbenzothiazole derivatives” (Pharminxo Limited, priority 2004, dated 2008)
